# Columns and labels:
# Assay type in all cases: in vivo, Mouse, C57BL/6J, male
# [1] = Analysis of exhaled gas (energy metabolism measurement system for small animals); conditions: over 24 hours after morning administration on day 82, 720 mg/10mL/kg oral twice a day, ultra high fat diet, n=10
# Experimental: A 32-channel energy metabolism measurement system for small animals (ARCO-2000-RAT, Arco System Inc.) was used to measure exhaled gas. Oxygen consumption (mL/min) and Carbon dioxide production (mL/min) of the animals were measured every 10 minutes at an air flow rate of 0.3 L/min. Measurements were carried out for about 24 hours after the completion of oral administration in the morning of the day before necropsy, and total oxygen consumption (mL/kg/day), energy consumption (kcal/kg/day), and lipid burning (mg/kg/day) over 24 hours were calculated using the following formulae: Calculation formulae: [formula] [formula] [formula] (VO2: oxygen consumption, VCO2: carbon dioxide production)
# Animals after arrival were fed ad libitum a solid diet of ultra high fat diet (D12492). After an acclimatization period, the animals were divided into groups according to the body weight. Then, the animals were individually housed and fed ad libitum the ultra high fat diet. The test substance was orally administered to all groups twice daily (once in the morning and once in the afternoon) (CON group: 0.5% CMC was orally administered; compound A administered group: compound A was orally administered). The day of the first administration was regarded as day 0 from the start of the test. Here, 5 animals from each group were regarded as the first-half animals, and the rest were regarded as the second-half animals, and feeding and administration for the second-half animals were started on day 2 from the start of the test of the first-half animals (day 0 from the start of the test of the second-half animals). In order for the animals to be acclimated to the environment inside an exhaled gas measurement chamber, the animals after oral administration in the morning (9:00) at days 7, 21, and 49 days from the start of the test were individually accommodated in the exhaled gas measurement chamber for 5.5 hours (10:00-15:30) with free access to water under fasting conditions. On days 28 and 65, after oral administration in the morning (11:00), all applicable animals were promptly accommodated individually in the exhaled gas measurement chamber, and acclimated for about 24 hours with free access to water and food. Oral administration was carried out in the afternoon of the same day (15:30) and in the morning of the next day (8:30), and the animals after administration were promptly accommodated in the exhaled gas measurement chamber again. After acclimation, the animals were returned to the cages for housing them. […] Oral administration was carried out in the morning (11:00) and afternoon (15:30) of the same day, and after oral administration in the morning (8:30) of the next day, exhaled gas was measured until necropsy. […]
# [2] = Rectal temperature before necropsy; conditions: before necropsy (day 83); 720 mg/10mL/kg oral twice a day for 12 weeks, ultra high fat diet; n=10; p < 0.01 vs CON
# Excerpt: Before necropsy, a temperature controller for small animals (NS-TC10 Temperature Controller, Neuroscience, Inc.) equipped with a probe for measuring the rectal temperature was inserted into the rectum to measure the rectal temperature.
# (§1) Animals after arrival were fed ad libitum a solid diet of ultra high fat diet (D12492). After an acclimatization period, the animals were divided into groups according to the body weight. Then, the animals were individually housed and fed ad libitum the ultra high fat diet. The test substance was orally administered to all groups twice daily (once in the morning and once in the afternoon) (CON group: 0.5% CMC was orally administered; compound A administered group: compound A was orally administered). The day of the first administration was regarded as day 0 from the start of the test. Here, 5 animals from each group were regarded as the first-half animals, and the rest were regarded as the second-half animals, and feeding and administration for the second-half animals were started on day 2 from the start of the test of the first-half animals (day 0 from the start of the test of the second-half animals). […] Oral administration was carried out in the morning (11:00) and afternoon (15:30) of the same day, and after oral administration in the morning (8:30) of the next day, exhaled gas was measured until necropsy. […]
# Body weight measurement = conditions: for Body weight: ultra high fat diet, n=10
# Experimental: Measurements were carried out at the time of arrival and every week from the day of grouping until the time of necropsy. Measurements were also carried out on the day of measuring the body composition and immediately before necropsy.
# (§2) Animals after arrival were fed ad libitum a solid diet of ultra high fat diet (D12492). After an acclimatization period, the animals were divided into groups according to the body weight. Then, the animals were individually housed and fed ad libitum the ultra high fat diet. The test substance was orally administered to all groups twice daily (once in the morning and once in the afternoon) (CON group: 0.5% CMC was orally administered; compound A administered group: compound A was orally administered). The day of the first administration was regarded as day 0 from the start of the test. Here, 5 animals from each group were regarded as the first-half animals, and the rest were regarded as the second-half animals, and feeding and administration for the second-half animals were started on day 2 from the start of the test of the first-half animals (day 0 from the start of the test of the second-half animals). In order for the animals to be acclimated to the environment inside an exhaled gas measurement chamber, the animals after oral administration in the morning (9:00) at days 7, 21, and 49 days from the start of the test were individually accommodated in the exhaled gas measurement chamber for 5.5 hours (10:00-15:30) with free access to water under fasting conditions. On days 28 and 65, after oral administration in the morning (11:00), all applicable animals were promptly accommodated individually in the exhaled gas measurement chamber, and acclimated for about 24 hours with free access to water and food. Oral administration was carried out in the afternoon of the same day (15:30) and in the morning of the next day (8:30), and the animals after administration were promptly accommodated in the exhaled gas measurement chamber again. After acclimation, the animals were returned to the cages for housing them. On day 82, all applicable animals were promptly accommodated in the exhaled gas measurement chamber (10:00) before oral administration in the morning. Oral administration was carried out in the morning (11:00) and afternoon (15:30) of the same day, and after oral administration in the morning (8:30) of the next day, exhaled gas was measured until necropsy. The animals were subjected to necropsy in the afternoon on day 83 (13:00). At the time of necropsy, laparotomy was performed under isoflurane anesthesia, and blood was collected from the caudal vena cava. After blood collection, the animals were euthanized by bleeding from the site of blood collection, and organs (fat, skeletal muscle) were collected.
# [3] = Body composition (body composition analyzer, Echo MRI-700); conditions: 720 mg/10mL/kg oral twice a day, ultra high fat diet, n=10
# Experimental: The body fat mass and the lean body mass were measured with a body composition analyzer (Echo MRI-700, Hitachi, Ltd.) at 6, 9, and 12 weeks of the test food intake, and divided by the body weight to calculate body fat percentage and lean body mass percentage.
# as §2
# [4] = White fat tissue weight at necropsy; conditions: white fat weight per body weight at necropsy, 720 mg/10mL/kg oral twice a day for 12 weeks, ultra high fat diet, n=10
# Excerpt: as §2
# At the time of necropsy, fat around the left and right epididymides was taken out, and then the epididymides were discarded. […]
# [5] = Skeletal muscle weight at necropsy; conditions: 720 mg/10mL/kg oral twice a day for 12 weeks, ultra high fat diet, n=10, p<0.05 vs CON
# Excerpt: as §2, with “collected. […]” for “collected.”
# [6] = Total cholesterol in plasma at necropsy; conditions: 720 mg/10mL/kg oral twice a day for 12 weeks, ultra high fat diet, n=10, p < 0.01 vs CON
# Excerpt: as §1
# [7] = calculated from VO2 and VCO2, p < 0.01 vs CON
# [8] = muscle weight per body weight at necropsy, left and right together
structure (smiles),measurement,setting,value
O=C(O)CC(C(=O)O)N1C(=O)CC(O)(CC(=O)O)C1=O (racemic) [Compound A],total carbon dioxide production,[1],28.277 mL/min/kg
same,total oxygen consumption,[1]; p < 0.01 vs CON,35.682 mL/min/kg
same,total energy consumption,[1]; [7],243 kcal/kg/day
same,total lipid burning,[1]; [7],17768 mg/kg/day
same,Rectal temperature,[2],35.7 °C
same,Body weight,"Body weight measurement; 1 week, 720 mg/10mL/kg oral twice a day",24.9 g
same,Body weight,"Body weight measurement; 2 weeks, 720 mg/10mL/kg oral twice a day",25.1 g
same,Body weight,"Body weight measurement; 3 weeks, 720 mg/10mL/kg oral twice a day",25.3 g
same,Body weight,"Body weight measurement; 4 weeks, 720 mg/10mL/kg oral twice a day",25.4 g
same,Body weight,"Body weight measurement; 5 weeks, 720 mg/10mL/kg oral twice a day",25.8 g
same,Body weight,"Body weight measurement; 6 weeks, 720 mg/10mL/kg oral twice a day",26.4 g
same,Body weight,"Body weight measurement; 7 weeks, 720 mg/10mL/kg oral twice a day, p=0.087 vs CON",26.8 g
same,Body weight,"Body weight measurement; 8 weeks, 720 mg/10mL/kg oral twice a day, p=0.082 vs CON",27.3 g
same,Body weight,"Body weight measurement; 9 weeks, 720 mg/10mL/kg oral twice a day, p=0.068 vs CON",27.8 g
same,Body weight,"Body weight measurement; 10 weeks, 720 mg/10mL/kg oral twice a day, p < 0.05 vs CON",27.2 g
same,Body weight,"Body weight measurement; 11 weeks, 720 mg/10mL/kg oral twice a day, p < 0.05 vs CON",28.3 g
same,Body weight,"Body weight measurement; 12 weeks, 720 mg/10mL/kg oral twice a day, p < 0.05 vs CON",28.9 g
same,Body weight,Body weight measurement; Before administration (baseline),25.1 g
same,body weight gain relative to the body weight gain of the CON group being 100%,"Body weight measurement; after 12 weeks of administration, (3.8 / 7.2) × 100",52.8%
same,mean body weight gain,"Body weight measurement; after 12 weeks of administration, CON group 7.2 g",3.8 g
same,Lean body mass percentage,"[3]; 6 weeks, p=0.057 vs CON",79.6%
same,Body fat percentage,"[3]; 6 weeks, p=0.092 vs CON",15.6%
same,Body fat percentage,"[3]; 9 weeks, p < 0.05 vs CON",17.7%
same,Lean body mass percentage,"[3]; 9 weeks, p < 0.05 vs CON",77.3%
same,Body fat percentage,"[3]; 12 weeks, p < 0.01 vs CON",19.0%
same,Lean body mass percentage,"[3]; 12 weeks, p < 0.01 vs CON",74.7%
same,Epididymal fat,[4]; p < 0.01 vs CON,32.18 g/Kg body weight
same,Perirenal fat,[4]; p < 0.01 vs CON,12.12 g/Kg body weight
same,Interscapular fat,[4]; p<0.05 vs CON,1.88 g/Kg body weight
same,Mesenteric fat,[4]; p<0.05 vs CON,10.10 g/Kg body weight
same,Anterior tibialis muscle,[5]; [8],3.53 g/Kg body weight
same,Extensor digitorum longus muscle,[5]; [8],0.84 g/Kg body weight
same,Plantaris muscle,[5]; [8],1.31 g/Kg body weight
same,Muscles (Total weight of 3 types of muscle),"[5]; plantaris, anterior tibial and extensor digitorum longus muscle, per body weight at necropsy",5.68 g/Kg body weight
same,Total cholesterol,[6],149.4 mg/dL

# Reference: patent EP4729058A1, “AGENT FOR PROMOTING ENERGY CONSUMPTION” (Otsuka Pharmaceutical Factory, Inc., priority 2023, dated 2024)
